Reference: article PMC8362126, “Proteolysis Targeting Chimera (PROTAC) for Macrophage Migration Inhibitory Factor (MIF) Has Anti‐Proliferative Activity in Lung Cancer Cells” (Angewandte Chemie (International Ed. in English), 2021)
“And” between values parts separate entries of the source, which are not always exact repeats. Equal values may be shown once. “Also recorded” adds a separate entry of the source.

Tests used:
MIF [1] = target: T1, MIF (Homo sapiens, UniProt P14174); test: MIF degradation in A549 cells, western-blot; format: cell-based; design: endogenous in cells; host or cells: A549 (ATCC CCL-185)
T1 sequence (P14174 2-115 limits assumed): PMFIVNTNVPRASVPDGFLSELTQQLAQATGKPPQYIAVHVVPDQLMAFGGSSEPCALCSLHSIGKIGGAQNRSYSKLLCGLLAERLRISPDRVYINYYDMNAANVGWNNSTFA
Procedure: The concentration dependence of PROTAC MD13‐mediated induction of MIF degradation in A549 cells was investigated using western‐blot. […] The MIF levels were normalized to the vehicle treated control and plotted to the respective MD13 concentrations. This provided a DC50 of around 100 nM and a maximal degradation of around 90–95 % at concentrations higher than 1 μM (Figure 3 B). The DC50 of MD13 measured by ELISA assay was about 200 nM (Figure 3 C), which is in line with the result from western‐blot. […]
Cell lysates were prepared using the protocol described above. About 10−40 μg of total protein was mixed with the 4× Laemmli Loading Dye (250 mM Tris, pH 6.8, 40% glycerol, 5% SDS, 0.005% bromophenol blue, 4% β-mercaptoethanol) and heated at 95−100 °C for 5 min and loaded onto a 12% Bis-Tris gel (Bio-Rad Laboratories, #4561084) and proteins were separated at 120V. Afterwards, proteins were transferred to polyvinylidene fluoride (PVDF) membranes, subsequently non-specific antibody binding was blocked with 5% nonfat dry milk (BIO-RAD, #1706404) in TBST buffer and incubated overnight at 4 °C with one of the following primary antibodies: anti-MIF (1:1000, ThermoFisher, #PA5-27343 ) or anti-β-actin (1:10000 Cell Signalling, #8457). The membranes were further incubated with a goat anti-rabbit HRP-conjugated secondary antibody (1:2000, DAKO, p0448) for 2 h at room temperature. Proteins were visualized with an ECLTM Prime Western Blotting System (GE Healthcare #RPN2232). The immunoblot was generated by ChemiDoc MP Imaging Systems (Bio-Rad) and analyzed by the ImageJ software. […]
As a control, the same experiment was repeated and analyzed by a western-blot assay (Figure 3B). The potency estimated from the Western blot assay was 1 µM (Figure 3C), which is consistent with the result from the ELISA assay. The “Hook effect” […]

MIF [2] = target: T1, MIF; test: MIF catalyzed 4-HPP tautomerization assay; format: biochemical; details: for IC50: 4-HPP conversion assay; for Ki: MIF catalyzed 4-HPP tautomerization, n=3
Procedure: S2. MIF Tautomerase activity IC50 study
The protocol for measuring inhibition of MIF tautomerase enzyme activity and enzyme kinetics was described previously.[8] Briefly, 180 µL of a 500 nM MIF solution in boric acid buffer (435 mM, pH 6.2) was mixed with 10 µL of a 20 mM EDTA solution in demiwater and 10 µL of a solution of the desired compound dissolved in DMSO or blanc DMSO. This mixture was pre-incubated at room temperature for 10 min. Next, 50 µL of this mixture was mixed with 50 µL of a 1 mM 4-HPP solution in ammonium acetate buffer (50 mM, pH 6.0). Subsequently, MIF tautomerase activity was monitored by measuring the increase of UV absorbance at 306 nm over time. MIF tautomerase activity in the presence a blank DMSO dilution was set to 100% enzyme activity. Non-catalyzed conversion of the substrate in absence of MIF was set to 0%.
Data from the first three minutes were used to calculate the initial velocities. All experiments were repeated three times and calculations were performed with the program GraphPad Prism.
Table S1. 4-HPP conversion assay results of MIF PROTACs
(also on this page, place not known: p rotocol previously. subs trate log [MD-1] (10^-6 M) Activity of MIF tautomerase(%) -2 -1 0 1 2 0 50 100 log [MD-2] (10^-6 M) Activity of MIF tautomerase(%) -2 -1 0 1 2 0 50 100)

A549 cells = test: CyQUANT cell proliferation assay; format: cell-based, human; details: 72 hours; for effect on cell proliferation: concentrations up to 20 μM
Procedure: S8. Cell growth, cell cycle and pERK signaling study
Cell proliferation was measured with the CyQUANT® Direct Cell Proliferation Assay Kit (Thermo Fisher, #C35011). A549 cells were cultured in 96-well plates at a density of 1,000 cells/well and treated with different concentrations of MIF PROTAC (0.02-20 μM) for 72 h.
Cells were incubated with detection reagent (100 μL) for 60 min at 37 °C with 5% CO2. The fluorescence of each well was read at 485/535nm by plate reader (BioTek).
Figure S8. Cells were seeded with a density of 1000 cells per well in a 96-well plate. After overnight incubation, the cells were treated with various concentration of MD13 for 72 hours.
The resulting cells were quantified by CyQUANT® cell proliferation assays and compared with the vehicle (DMSO) control (n=3). […]
(also on this page, place not known: (0.02 -20 CO 2. (20 µM) 4 (20 µM) µM 20 µM 0.01 µM 0.08 µM 0.74 µM 6.7 µM 20 µM 0 50 100 Cell (%) H441 n.s. * * ** *** * n.s. MD15 96 -well MD13 proliferation control 96 -well round - 2 3) […]
(1 picture or pasted object on this page, not shown here)

| Compound | effect on MIF level relative to control (MIF [1]; A549 cells, 12 hours, inactive control experiment) | IC50 (MIF [2]) [nM] | Ki (MIF [2]) [nM] | effect on cell proliferation (A549 cells) | Dmax (MIF [1]; A549, A549 cells, 12 h, western-blot, concentrations higher than 1 μM, read-out: maximal degradation (Dmax)) [%] | reduction of MIF protein levels within 3 hours (MIF [1]; A549 cells, 3 hours) | maximal degradation (Dmax) (MIF [1]; A549 cells, 12 h, western-blot, concentrations higher than 1 μM) [%] | DC50 (MIF [1]; A549 cells, 12 h, western-blot, read-out: DC50) | recovery of the MIF levels after 48 h (MIF [1]; A549 cells, 48 h) | MIF degradation after 6 h (MIF [1]; A549 cells, time course, 6 h) [%] | time of treatment after which MIF degradation becomes visible (MIF [1]; A549 cells, MD9 at 10 μM) [h] | inhibition at 20 µM (A549 cells; Homo sapiens, 20 μM, 2D culture) [%] | rescue of MD9 mediated MIF degradation (MIF [1]; A549 cells, 2 hours pretreatment (1 100 µM, 3 50 µM, 4 50 µM, Bortezomib), then 10 µM MD9 12 h) | rescue of MD13 mediated MIF degradation (MIF [1]; A549 cells, co-treatment (Bortezomib) or 1 hour pretreatment (3, 4) with MD13) |
| --- | --- | --- | --- | --- | --- | --- | --- | --- | --- | --- | --- | --- | --- | --- |
| CN1C(=O)CCC(N2C(=O)c3cccc(NCCCCCCCC(=O)Nc4ccc(N5Cc6ccc(O)cc6OC5=O)cc4)c3C2=O)C1=O (stereo not drawn) [MD15] | not able to reduce the MIF levels; also recorded: no effect on MIF protein level | 83 ± 18 | 55 ± 12 | almost no inhibition; also recorded: no or little effect |  |  |  |  |  |  |  |  |  |  |
| O=C1CCC(N2C(=O)c3cccc(NCCCCCCCC(=O)Nc4ccc(N5Cc6ccc(O)cc6OC5=O)cc4)c3C2=O)C(=O)N1 (stereo not drawn) [MD13] |  | 106 ± 7 | 71 ± 5 |  | 90 to 95 | about 80% | > 90 | ~100 nM and < 100 nM | slight recovery | > 92 | 3 | ~50 |  |  |
| COc1ccc(N2Cc3ccc(O)cc3OC2=O)cc1OC [compound 3] |  |  | 103 ± 10 | no effect; also recorded: no or little effect |  |  |  |  |  |  |  |  | partial to complete rescue; also recorded: rescued | rescued MIF from degradation; also recorded: able to abolish the MD13 triggered degradation |
